From ChEMBL document CHEMBL6096686, “Lanosterol 14α-Demethylase (CYP51)/Heat Shock Protein 90 (Hsp90) Dual Inhibitors for the Treatment of Invasive Candidiasis” (J Med Chem, 2025) come the findings set out here.

For series [1], the system named is Candida albicans. In words: Antifungal activity against Candida albicans SC5314 incubated for 48 hrs by CLSI based liquid microdilution technique. In kind it is functional. A general note: Broth dilution looks for growth in wells or tubes with falling amounts of substance.
Series [2] concerns Nakaseomyces glabratus. The series is described as follows: Antifungal activity against Candida glabrata 7804 incubated for 48 hrs by CLSI based liquid microdilution technique. It is filed as functional.
Series [3] deals with Cryptococcus neoformans. The series is described as follows: Antifungal activity against Cryptococcus neoformans H99 incubated for 72 hrs by CLSI based liquid microdilution technique. It is filed as functional.
The test system of series [4] is Pichia kudriavzevii. In words: Antifungal activity against Candida krusei 10153 incubated for 48 hrs by CLSI based liquid microdilution technique. It is filed as functional.
The subject of series [5] is Candida albicans. In words: Synergistic antifungal activity against Candida albicans SC5314 incubated for 48 hrs in presence of FLC by CLSI based liquid microdilution technique. It is filed as functional.
Series [6] relates to Cryptococcus neoformans. In words: Synergistic antifungal against Cryptococcus neoformans H99 incubated for 72 hrs in presence of FLC by CLSI based liquid microdilution technique. It is filed as functional.
For series [7], the system named is Nakaseomyces glabratus. The series is described as follows: Synergistic antifungal activity against Candida glabrata 7804 incubated for 48 hrs in presence of FLC by CLSI based liquid microdilution technique. In kind it is functional.
Series [8] relates to Pichia kudriavzevii. The series is described as follows: Synergistic antifungal activity against Candida krusei 10153 incubated for 48 hrs in presence of FLC by CLSI based liquid microdilution technique. In kind it is functional.
Series [9] in a line: Cytotoxicity against HUVEC cells measured after 72 hrs by CCK8 assay. It is filed as toxicity, cell-based. The conditions noted are these: human. Background: Tetrazolium dyes change colour on reduction, which living cells bring about.
Series [10] is described as follows: Cytotoxicity against human L02 cells measured after 72 hrs by CCK8 assay. It is filed as toxicity, cell-based.
Series [11] deals with Lanosterol 14-alpha demethylase (Candida albicans (strain SC5314 / ATCC MYA-2876) (Yeast), UniProt P10613). In words: Inhibition of CYP51 in Candida albicans SC5314 assessed as decrease in ergosterol level at 4 ug/ml measured after 48 hrs by GC-MS analysis. The following applies: at 4 µg/mL.
Series [12] has as its target Heat shock protein 90 homolog (Candida albicans (strain SC5314 / ATCC MYA-2876) (Yeast), UniProt P46598). In words: Inhibition of HSP90 extracted from Candida albicans SC5314 lysate using FITC-Geldanamycin as substrate incubated for 6 hrs by fluorescence polarization assay. It is filed as subcellular. (In general: Polarisation of emitted light reports the rotation of a fluorescent probe.)

Another series addresses Heat shock protein HSP90 (Homo sapiens, UniProt P07900+P08238). In words: Inhibition of human HSP90 using FITC-Geldanamycin as substrate incubated for 6 hrs by fluorescence polarization assay. In kind it is protein assay.
For series [13], the system named is Candida albicans. In words: Inhibition of biofilm formation in Candida albicans SC5314 at 4 ug/ml incubated for 24 hrs by XTT reduction method relative to control. It is filed as functional. The following applies: dose 4.0 µg/ml.
Series [14] relates to Candida albicans. In words: Antifungal activity against Candida albicans SC5314 infected in immunosuppressed ICR mouse assessed as reduction in fungal burden in kidney at 10 mg/kg, ip treated for 5 days consecutively. In kind it is functional, organism-based. The conditions noted are these: time 5.0 day.
Series [15] concerns Candida albicans. The series is described as follows: Synergistic antifungal activity against Candida albicans SC5314 infected in immunosuppressed ICR mouse assessed as reduction in fungal burden in kidney at 10 mg/kg, ip treated for 5 days consecutively in presence of FLC. It is filed as functional, organism-based. The conditions noted are these: time 5.0 day.

Values after ≈ are worked out from the molar mass of the structure shown. Active and inactive are the calls of the source. The rule behind the calls is not given here. A value given as a limit tells only on which side of the number the result lay.

Chain of Lanosterol 14-alpha demethylase (P10613 whole entry): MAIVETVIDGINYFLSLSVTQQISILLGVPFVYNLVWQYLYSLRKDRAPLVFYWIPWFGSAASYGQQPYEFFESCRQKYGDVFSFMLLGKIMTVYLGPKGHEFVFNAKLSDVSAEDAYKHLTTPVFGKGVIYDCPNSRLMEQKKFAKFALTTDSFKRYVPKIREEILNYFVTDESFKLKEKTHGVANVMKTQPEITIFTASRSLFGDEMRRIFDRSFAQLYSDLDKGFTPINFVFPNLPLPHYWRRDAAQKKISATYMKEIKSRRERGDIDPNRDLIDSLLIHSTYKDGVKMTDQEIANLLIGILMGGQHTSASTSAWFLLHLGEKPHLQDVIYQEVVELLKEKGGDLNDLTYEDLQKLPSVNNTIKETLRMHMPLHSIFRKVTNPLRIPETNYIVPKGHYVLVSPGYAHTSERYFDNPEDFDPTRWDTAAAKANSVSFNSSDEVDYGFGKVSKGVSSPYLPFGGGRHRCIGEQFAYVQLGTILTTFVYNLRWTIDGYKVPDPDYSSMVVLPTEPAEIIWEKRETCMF
Chain of Heat shock protein 90 homolog (P46598 whole entry): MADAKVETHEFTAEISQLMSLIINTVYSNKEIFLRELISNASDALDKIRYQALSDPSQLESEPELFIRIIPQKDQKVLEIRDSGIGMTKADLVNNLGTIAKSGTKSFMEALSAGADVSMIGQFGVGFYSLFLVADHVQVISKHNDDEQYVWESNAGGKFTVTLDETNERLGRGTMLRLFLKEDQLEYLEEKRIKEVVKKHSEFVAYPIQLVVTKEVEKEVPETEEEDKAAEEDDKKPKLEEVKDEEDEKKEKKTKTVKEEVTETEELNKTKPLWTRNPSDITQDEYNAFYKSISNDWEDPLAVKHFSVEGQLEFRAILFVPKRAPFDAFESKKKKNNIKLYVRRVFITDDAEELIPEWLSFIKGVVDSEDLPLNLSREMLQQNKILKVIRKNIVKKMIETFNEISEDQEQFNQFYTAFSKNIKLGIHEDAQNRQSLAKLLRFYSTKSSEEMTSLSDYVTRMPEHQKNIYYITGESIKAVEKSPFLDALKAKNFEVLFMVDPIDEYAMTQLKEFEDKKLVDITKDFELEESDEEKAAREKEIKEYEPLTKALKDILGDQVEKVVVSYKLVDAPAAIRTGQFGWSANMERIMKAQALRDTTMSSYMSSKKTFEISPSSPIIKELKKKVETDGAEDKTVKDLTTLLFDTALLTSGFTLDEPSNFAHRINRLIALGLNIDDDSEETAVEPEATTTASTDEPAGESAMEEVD

`CCNC(=O)c1noc(-c2cc(-c3ccc(C)cc3)c(O)cc2O)c1-c1ccc(CN2CCN(C(=O)CCCCCOc3ccc(CN(C)CC(O)(Cn4cncn4)c4ccc(F)cc4F)cc3)CC2)cc1` (stereo not drawn): the MIC80 (commonly the lowest concentration that inhibits either 80% of growth or 80% of the strains tested, depending on the study) was 4 µg/mL (≈ 4.07 µM) against Candida albicans [1], 16 µg/mL (≈ 16.3 µM) in the series with Nakaseomyces glabratus [2], 4 µg/mL (≈ 4.07 µM) in the series with Cryptococcus neoformans [3] and above 64 µg/mL against Pichia kudriavzevii [4].

On to `CCN(C(=O)c1cc(-c2ccc(C)cc2)c(O)cc1O)c1ccc(CN2CCN(C(=O)CCCCCOc3ccc(CN(C)CC(O)(Cn4cncn4)c4ccc(F)cc4F)cc3)CC2)cc1` (stereo not drawn), for which the MIC80 with Candida albicans [1] worked out at 8 µg/mL (≈ 8.73 µM); against Nakaseomyces glabratus [2], 16 µg/mL (≈ 17.5 µM); in the series on Cryptococcus neoformans [3] it was 8 µg/mL (≈ 8.73 µM); in the series on Pichia kudriavzevii [4], 32 µg/mL (≈ 34.9 µM).

On to `CCN(C(=O)c1cc(-c2ccc(C)cc2)c(O)cc1O)c1ccc(CN2CCN(C(=O)CCCOc3ccc(CN(C)CC(O)(Cn4cncn4)c4ccc(F)cc4F)cc3)CC2)cc1` (stereo not drawn), for which the MIC80 worked out at 8 µg/mL (≈ 9.01 µM) with Candida albicans [1], 16 µg/mL (≈ 18 µM) in the series on Nakaseomyces glabratus [2], 4 µg/mL (≈ 4.5 µM) with Cryptococcus neoformans [3] and 16 µg/mL (≈ 18 µM) against Pichia kudriavzevii [4].

In the case of `CCNC(=O)c1noc(-c2cc(-c3ccc(C)cc3)c(O)cc2O)c1-c1ccc(CN2CCOCC2)cc1`, the MIC80 in the series with Candida albicans [1] was 32 µg/mL (≈ 62.3 µM); in the series with Nakaseomyces glabratus [2] it was above 64 µg/mL; in the series on Cryptococcus neoformans [3], 32 µg/mL (≈ 62.3 µM); against Pichia kudriavzevii [4], above 64 µg/mL. In addition, the “fractional inhibitory concentration index (FICI)” value in the series with Candida albicans [5] was found to be 0.13; with Cryptococcus neoformans [6], 0.31; with Nakaseomyces glabratus [7], 0.5; in the series on Pichia kudriavzevii [8] it was 2. The IC50 at 72 h in [9] and in series [10] was 680 nM throughout. In addition, the “inhibition (INH)” value in series [11] is on record as “Not_active”. For the same compound, the IC50 – broadly, the concentration that gives 50% inhibition – in series [12] turned out to be 390 nM; against Heat shock protein HSP90, 1540 nM. Also, the inhibition entry in the series on Candida albicans [13] is given as “Active; Exhibited Little Inhibitory Effect”. Besides, the result in the series with Candida albicans [14] was inactive. Further, the outcome in the series on Candida albicans [15] was Active.
